Among the data in US20250101041A1, “POSITIVE ALLOSTERIC MODULATORS OF THE MUSCARINIC ACETYLCHOLINE RECEPTOR M4” (Vanderbilt University, priority 2022, published 2025) are Emax and EC50 values, retold here.

The target of the assay is T1, human mAChR M4 (Homo sapiens, UniProt P08173).
T1 construct: expressed in transfected cells; host or cells: CHO-K1 (American Type Culture Collection), stably expressing hM4 and Gqi5
T1 sequence (P08173 1-479): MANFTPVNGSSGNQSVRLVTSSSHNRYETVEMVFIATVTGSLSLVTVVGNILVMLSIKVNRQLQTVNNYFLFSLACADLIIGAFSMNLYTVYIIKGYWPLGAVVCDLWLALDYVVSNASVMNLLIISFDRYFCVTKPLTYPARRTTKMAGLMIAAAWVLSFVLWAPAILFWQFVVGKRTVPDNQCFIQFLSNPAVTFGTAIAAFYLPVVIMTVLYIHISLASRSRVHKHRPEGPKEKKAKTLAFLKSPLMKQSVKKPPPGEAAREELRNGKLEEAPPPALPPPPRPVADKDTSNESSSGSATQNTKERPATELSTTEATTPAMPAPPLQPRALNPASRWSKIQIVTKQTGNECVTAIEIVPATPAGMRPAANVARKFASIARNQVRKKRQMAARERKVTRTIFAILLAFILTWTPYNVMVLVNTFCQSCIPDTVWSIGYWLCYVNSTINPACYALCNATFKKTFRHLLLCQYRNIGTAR
Description: mAChR M4 cell-based functional assay: calcium mobilization (Fluo-4, FDSS), potentiation of EC20 acetylcholine response in hM4-Gqi5 CHO-K1 cells. The note with it: human M4; for Emax at 30 µM: CHO-K1, % ACh maximum at 30 μM; for EC50: potentiation of EC20 acetylcholine response, calcium mobilization. The protocol:
Human and rat M4 cDNAs, along with the chimeric G protein Gqi5, were transfected into Chinese hamster ovary (CHO-K1) cells purchased from the American Type Culture Collection using Lipofectamine2000. hM4-Gqi5 cells were grown in Ham's F-12 medium containing 10% heat-inactivated fetal bovine serum (FBS), 20 mM HEPES, 50 μg/mL G418 sulfate, and 500 μg/mL Hygromycin B. rM4-Gqi5 cells were grown in DMEM containing 10% heat-inactivated FBS, 20 mM HEPES, 400 μg/mL G418 sulfate, and 500 μg/mL Hygromycin B.
For high throughput measurement of agonist-evoked increases in intracellular calcium, CHO-K1 cells stably expressing muscarinic receptors were plated in growth medium lacking G418 and hygromycin at 15,000 cells/20 μL/well in Greiner 384-well black-walled, tissue culture (TC)-treated, clear-bottom plates (VWR). Cells were incubated overnight at 37° C. and 5% CO2. The next day, cells were washed using an ELX 405 (BioTek) with assay buffer; the final volume was then aspirated to 20 μL. Next, 20 μL of a […] of Fluo-4/acetoxymethyl ester (Invitrogen, Carlsbad, CA), prepared as a 2.3 mM stock in DMSO and mixed in a 1:1 ratio with 10% (w/v) Pluronic F-127 and diluted in assay buffer, was added to the wells and the cell plates were incubated for 50 min at 37° C. and 5% CO2. Dye was removed by washing with the ELX 405 and the final volume was aspirated to 20 μL. Compound master plates were formatted in an 11 point concentration-response curve (CRC) format (1:3 dilutions) in 100% DMSO with a starting concentration of 10 mM using a BRAVO liquid handler (Agilent). Test compound CRCs were then transferred to daughter plates (240 nL) using the Echo acoustic plate reformatter (Labcyte, Sunnyvale, CA) and then diluted into assay buffer (40 μL) to a 2× stock using a Thermo Fisher Combi (Thermo Fisher Scientific, Waltham, MA).
Calcium flux was measured using the Functional Drug Screening System (FDSS) 6000 or 7000 (Hamamatsu Corporation, Tokyo, Japan) as an increase in the fluorescent static ratio. Compounds were applied to cells (20 μL, 2X) using the automated system of the FDSS at 2-4 seconds into the protocol and the data were collected at 1 Hz. At 144 seconds, 10 μL of an EC20 concentration of the muscarinic receptor agonist acetylcholine was added (5×), followed by the addition of 12 μL of an […] concentration of acetylcholine at the 230 second time point (5×). Agonist activity was analyzed as a concentration-dependent increase in calcium mobilization upon compound addition. Positive allosteric modulator activity was analyzed as a concentration-dependent increase in the EC20 acetylcholine response. Antagonist activity was analyzed as a concentration-dependent decrease in the EC20 acetylcholine response. Concentration-response curves were generated using a four-parameter logistical equation in XLFit curve fitting software (IDBS, Bridgewater, NJ) for Excel (Microsoft, Redmond, WA) or Prism (GraphPad Software, Inc., San Diego, CA).
Compounds were synthesized as described above. Activity (EC50 and Emax) was determined in the mAChR M4 cell-based functional assay as described above and the data are shown in Table 4. The compound number corresponds to the compound numbers used in Tables 1-3.
A general note: Calcium assays in cells follow changes in intracellular calcium, usually with a dye or a luminescent sensor.

For the compound `COCc1cc(=O)n2nc(N3CCc4ncc(-c5cnc(Cl)cc5C)cc4C3)c(C)c(C)c2n1` [Compound 1-379, 7-(3-(6-chloro-4-methylpyridin-3-yl)-7,8-dihydro-1,6-naphthyridin-6(5H)-yl)-2-(methoxymethyl)-8,9-dimethyl-4H-pyrimido[1,2-b]pyridazin-4-one], the Emax – broadly, the size of the effect at its maximum, as opposed to the concentration needed – at 30 µM came to 109% and the EC50 (commonly the concentration at which the effect is half-maximal) came out at 357 nM. Taken in the same sequence, the figures for `Cc1ccc2c(-c3cnc4c(c3)CN(c3nn5c(=O)ccnc5cc3C)CC4)cccc2n1` [Compound 1-48, 8-methyl-7-(3-(2-methylquinolin-5-yl)-7,8-dihydro-1,6-naphthyridin-6(5H)-yl)-4H-pyrimido[1,2-b]pyridazin-4-one] were 72% and 321 nM. As for `Cc1c(N2CCc3ncc(N4CCCn5nccc54)cc3C2)nn2c(=O)cc(C(F)(F)F)nc2c1C` [Compound 2-30, 7-(3-(6,7-dihydropyrazolo[1,5-a]pyrimidin-4(5H)-yl)-7,8-dihydro-1,6-naphthyridin-6(5H)-yl)-8,9-dimethyl-2-(trifluoromethyl)-4H-pyrimido[1,2-b]pyridazin-4-one], the Emax at 30 µM was 83% and the EC50 is 20 nM. Consider `Cc1ccc2c(c1)N(c1cnc3c(c1)CN(c1nn4c(=O)ccnc4cc1C)CC3)CCO2` [Compound 2-53, 8-methyl-7-(3-(6-methyl-2,3-dihydro-4H-benzo[b][1,4]oxazin-4-yl)-7,8-dihydro-1,6-naphthyridin-6(5H)-yl)-4H-pyrimido[1,2-b]pyridazin-4-one], for which the Emax at 30 µM amounted to 87% and the EC50 is 28 nM.

`Cc1cc2ncc(Cl)c(=O)n2nc1N1CCc2ncc(-c3cnn(C4CC4)c3)cc2C1` [Compound 1-12, 3-chloro-7-(3-(1-cyclopropyl-1H-pyrazol-4-yl)-7,8-dihydro-1,6-naphthyridin-6(5H)-yl)-8-methyl-4H-pyrimido[1,2-b]pyridazin-4-one]: the Emax at 30 µM amounted to 80% and the EC50 amounted to 127 nM. Taken in the same sequence, the figures for `COCc1cc(=O)n2nc(N3CCc4ncc(-c5cc(F)ncc5F)cc4C3)c(C)cc2n1` [Compound 1-320, 7-(3-(2,5-difluoropyridin-4-yl)-7,8-dihydro-1,6-naphthyridin-6(5H)-yl)-2-(methoxymethyl)-8-methyl-4H-pyrimido[1,2-b] pyridazin-4-one] were 77% and 1470 nM. Taken in the same sequence, the figures for `Cc1cc2nccc(=O)n2nc1N1CCc2ncc(Nc3cncc(C(F)(F)F)c3)cc2C1` [Compound 2-138, 8-methyl-7-(3-((5-(trifluoromethyl)pyridin-3-yl)amino)-7,8-dihydro-1,6-naphthyridin-6(5H)-yl)-4H-pyrimido[1,2-b]pyridazin-4-one] were 87% and 747 nM. Take `Cc1c(N2CCc3ncc(-c4cnn(C(F)F)c4)cc3C2)nn2c(=O)ccnc2c1C` [Compound 1-339, 7-(3-(1-(difluoromethyl)-1H-pyrazol-4-yl)-7,8-dihydro-1,6-naphthyridin-6(5H)-yl)-8,9-dimethyl-4H-pyrimido[1,2-b]pyridazin-4-one]: the Emax at 30 µM was found to be 77% and the EC50 was 230 nM.

Turning to `Cc1cc2nccc(=O)n2nc1N1CCc2ncc(Nc3ccnc(F)c3)cc2C1` [Compound 2-123, 7-(3-((2-fluoropyridin-4-yl)amino)-7,8-dihydro-1,6-naphthyridin-6(5H)-yl)-8-methyl-4H-pyrimido[1,2-b]pyridazin-4-one], the Emax at 30 µM was found to be 92% and the EC50 stood at 16 nM. For the compound `Cc1cc(=O)n2nc(N3CCc4ncc(-c5cccs5)cc4C3)c(C)cc2n1` [Compound 1-297, 2,8-dimethyl-7-(3-(thiophen-2-yl)-7,8-dihydro-1,6-naphthyridin-6(5H)-yl)-4H-pyrimido[1,2-b]pyridazin-4-one], the Emax at 30 µM is 87% and the EC50 stood at 76 nM. Take `Cc1ccc(-c2cnc3c(c2)CN(c2nn4c(=O)cc(CC5CCCC5)nc4c(C)c2C)CC3)cn1` [Compound 1-226, 2-(cyclopentylmethyl)-8,9-dimethyl-7-(3-(6-methylpyridin-3-yl)-7,8-dihydro-1,6-naphthyridin-6(5H)-yl)-4H-pyrimido[1,2-b]pyridazin-4-one]: the Emax at 30 µM turned out to be 59% and the EC50 came out at 1190 nM. As to `Cc1c(N2CCc3ncc(-c4ccc(C(F)(F)F)nc4)cc3C2)nn2c(=O)ccnc2c1C` [Compound 1-90, 8,9-dimethyl-7-(3-(6-(trifluoromethyl)pyridin-3-yl)-7,8-dihydro-1,6-naphthyridin-6(5H)-yl)-4H-pyrimido[1,2-b]pyridazin-4-one], the Emax at 30 µM worked out at 87% and the EC50 came out at 669 nM. For `COc1ccc(-c2cnc3c(c2)CN(c2nn4c(=O)ccnc4cc2C)CC3)c(C)n1` [Compound 1-426, 7-(3-(6-methoxy-2-methylpyridin-3-yl)-7,8-dihydro-1,6-naphthyridin-6(5H)-yl)-8-methyl-4H-pyrimido[1,2-b]pyridazin-4-one], in that order: 84% and 348 nM. For the compound `Cc1c(N2CCc3ncc(-c4ccc(F)c(F)c4)cc3C2)nn2c(=O)cc(C(F)F)nc2c1C` [Compound 1-283, 2-(difluoromethyl)-7-(3-(3,4-difluorophenyl)-7,8-dihydro-1,6-naphthyridin-6(5H)-yl)-8,9-dimethyl-4H-pyrimido[1,2-b]pyridazin-4-one], the Emax at 30 µM was 79% and the EC50 turned out to be 900 nM. As for `Cc1cc2nccc(=O)n2nc1N1CCc2ncc(Nc3cc(C(F)(F)F)ncc3F)cc2C1` [Compound 2-152, 7-(3-((5-fluoro-2-(trifluoromethyl)pyridin-4-yl)amino)-7,8-dihydro-1,6-naphthyridin-6(5H)-yl)-8-methyl-4H-pyrimido[1,2-b]pyridazin-4-one], the Emax at 30 µM was found to be 88% and the EC50 came to 1320 nM. For the compound `Cc1cc2nccc(=O)n2nc1N1CCc2ncc(-c3sccc3C)cc2C1` [Compound 1-409, 8-methyl-7-(3-(3-methylthiophen-2-yl)-7,8-dihydro-1,6-naphthyridin-6(5H)-yl)-4H-pyrimido[1,2-b]pyridazin-4-one], the Emax at 30 µM is 95% and the EC50 was found to be 48 nM. Taken in the same sequence, the figures for `Cc1cc2ncc(Cl)c(=O)n2nc1N1CCc2ncc(-c3cn(C)nc3C)cc2C1` [Compound 1-11, 3-chloro-7-(3-(1,3-dimethyl-1H-pyrazol-4-yl)-7,8-dihydro-1,6-naphthyridin-6(5H)-yl)-8-methyl-4H-pyrimido[1,2-b]pyridazin-4-one] were 92% and 158 nM. On to `Cc1c(N2CCc3ncc(P(C)(C)=O)cc3C2)nn2c(=O)ccnc2c1C` [Compound 3-5, 7-(3-(Dimethylphosphoryl)-7,8-dihydro-1,6-naphthyridin-6(5H)-yl)-8,9-dimethyl-4H-pyrimido[1,2-b]pyridazin-4-one], for which the Emax at 30 µM was found to be 77%. For `Cc1cc(C(F)(F)F)ncc1-c1cnc2c(c1)CN(c1nn3c(=O)ccnc3cc1C)CC2` [Compound 1-400, 8-methyl-7-(3-(4-methyl-6-(trifluoromethyl)pyridin-3-yl)-7,8-dihydro-1,6-naphthyridin-6(5H)-yl)-4H-pyrimido[1,2-b] pyridazin-4-one], the Emax at 30 µM was 95% and the EC50 was determined as 433 nM.
